Data from patent US8008303B2, “Biphenyl derivatives and their use in treating hepatitis C” (AstraZeneca AB, priority 2005, dated 2011).
Like-named read-outs stand apart in the source and are kept apart here.

Tests used:
[1] = tested on: HCV replicon cells Huh 9B; test: HCV replicon assay (luciferase readout); type: cell-based
Procedure, shortened: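 Compounds, made up at twice final strength (final DMSO 1%), were added to subgenomic replicon cells one day after plating. Incubation then ran 72 h at 37 °C, 5% CO2, without G418. Replication was quantified as firefly luciferase luminescence in lysed cells, with cytotoxicity assessed on a duplicate clear plate.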

[2] = tested on: HCV replicon cells Huh 9B; type: cell-based
[3] = Hepatitis C virus, 72 h, concentration reducing replicon level (luciferase activity) by 50% vs untreated cell control, 72 h incubation
[4] = concentration reducing total cell area by 50% relative to DMSO controls, methylene blue, absorbance 620 nm, 72 h incubation

Row | SMILES | IC50 [1, 3] [µM] | TD50 [2, 4] | IC50 [1] [µM] | TD50 [2]
1 | Cc1ccc(-c2noc(C3CCCCC3)n2)cc1-c1ccc(C(=O)Nc2ccc(CN3CCS(=O)(=O)CC3)cc2)cc1 [Example 206, 5′-(5-Cyclohexyl-[1,2,4]oxadiazol-3-yl)-2′-methyl-biphenyl-4-carboxylic acid [4-(1,1-dioxo-1lambda*6*-thiomorpholin-4-ylmethyl)-phenyl]-amide] | > 5 | * (* < 50 μM) |  | 
2 | Cc1ccc(-c2noc(C(C)C)n2)cc1-c1ccc(C(=O)Nc2ccc(CN3CCS(=O)(=O)CC3)cc2)cc1 [Example 207, 5′-(5-Isopropyl-[1,2,4]oxadiazol-3-yl)-2′-methyl-biphenyl-4-carboxylic acid [4-(1,1-dioxo-1lambda*6*-thiomorpholin-4-ylmethyl)-phenyl]-amide] | > 5 | * (* < 50 μM) |  | 
3 | CCN(CC)CCNC(=O)c1ccc(NC(=O)c2ccc(-c3cc(C(=O)NC4CC4)ccc3C)cc2)cc1 [Example 208, 6-Methyl-biphenyl-3,4′-dicarboxylic acid 3-cyclopropylamide 4′-{[4-(2-diethylamino-ethylcarbamoyl)-phenyl]-amide}] |  |  | > 5 | * (key: * < 50 μM; ** > 50 μM)
4 | Cc1ccc(NC(=O)c2ccco2)cc1-c1ccc(C(=O)NCc2cccc(Cl)c2)cc1 [Example 209, Furan-2-carboxylic acid [4′-(3-chloro-benzylcarbamoyl)-6-methyl-biphenyl-3-yl]-amide] | 1 to 5 | ** (** > 50 μM) |  | 
5 | CCOC(=O)c1ccc(-c2cc(NC(=O)OC(C)(C)C)ccc2C)cc1 [Example 210, 5′-tert-Butoxycarbonylamino-2′-methyl-biphenyl-4-carboxylic acid ethyl ester] | 1 to 5 | * (* < 50 μM) |  | 
6 | Cc1ccc(NC(=O)c2ccc(Br)cc2)cc1-c1ccc(C(=O)Nc2ccc3cn[nH]c3c2)cc1 [Example 211, 5′-(4-Bromo-benzoylamino)-2′-methyl-biphenyl-4-carboxylic acid (1H-indazol-6-yl)-amide] | 1 to 5 | * (* < 50 μM) |  | 
7 | Cc1ccc(NC(=O)c2ccc(Br)cc2)cc1-c1ccc(C(=O)Nc2ccc(-c3cnco3)cc2)cc1 [Example 212, 5′-(4-Bromo-benzoylamino)-2′-methyl-biphenyl-4-carboxylic acid (4-oxazol-5-yl-phenyl)-amide] | > 5 | ** (** > 50 μM) |  | 
8 | Cc1ccc(NC(=O)c2cccs2)cc1-c1ccc(C(=O)Nc2ccc3cn[nH]c3c2)cc1 [Example 213, Thiophene-2-carboxylic acid [4′-(1H-indazol-6-ylcarbamoyl)-6-methyl-biphenyl-3-yl]-amide] | 1 to 5 | * (* < 50 μM) |  | 
9 | Cc1cccc(CNC(=O)c2ccc(-c3cc(NC(=O)c4cn[nH]c4)ccc3C)cc2)c1 [Example 214, 1H-Pyrazole-4-carboxylic acid [6-methyl-4′-(3-methyl-benzylcarbamoyl)-biphenyl-3-yl]-amide] | > 5 | * (* < 50 μM) |  | 
10 | Cc1cccc(CNC(=O)c2ccc(-c3cc(NC(=O)c4ccncc4)ccc3C)cc2)c1 [Example 215, N-[6-Methyl-4′-(3-methyl-benzylcarbamoyl)-biphenyl-3-yl]-isonicotinamide] | > 5 | * (* < 50 μM) |  | 
11 | Cc1ccc(NC(=O)C2CC2)cc1-c1ccc(C(=O)NCc2cccc(Cl)c2)cc1 [Example 216, 5′-(Cyclopropanecarbonyl-amino)-2′-methyl-biphenyl-4-carboxylic acid 3-chloro-benzylamide] | > 5 | * (* < 50 μM) |  | 
12 | Cc1ccc(NC(=O)C2CC2)cc1-c1ccc(C(=O)NCc2ccc(N3CCN(C)CC3)cc2)cc1 [Example 217, 5′-(Cyclopropanecarbonyl-amino)-2′-methyl-biphenyl-4-carboxylic acid 4-(4-methyl-piperazin-1-yl)-benzylamide] | > 5 | * (* < 50 μM) |  | 
13 | Cc1ccc(NC(=O)C2CC2)cc1-c1ccc(C(=O)Nc2ccc(-n3cncn3)cc2)cc1 [Example 218, 5′-(Cyclopropanecarbonyl-amino)-2′-methyl-biphenyl-4-carboxylic acid (4-[1,2,4]triazol-1-yl-phenyl)-amide] | < 1 | * (* < 50 μM) |  | 
14 | Cc1ccc(NC(=O)C2CCCCC2)cc1-c1ccc(C(=O)Nc2ccc(-n3cncn3)cc2)cc1 [Example 219, 5′-(Cyclohexanecarbonyl-amino)-2′-methyl-biphenyl-4-carboxylic acid (4-[1,2,4]triazol-1-yl-phenyl)-amide] | 1 to 5 | * (* < 50 μM) |  | 
15 | CCC1(c2ccc(NC(=O)c3ccc(-c4cc(NC(=O)C5CC5)ccc4C)cc3)cc2)CCC(=O)NC1=O (stereo not shown) [Example 220, 5′-(Cyclopropanecarbonyl-amino)-2′-methyl-biphenyl-4-carboxylic acid [4-(3-ethyl-2,6-dioxo-piperidin-3-yl)-phenyl]-amide] | < 1 | * (* < 50 μM) |  | 
16 | CCC1(c2ccc(NC(=O)c3ccc(-c4cc(NC(=O)C5CCCCC5)ccc4C)cc3)cc2)CCC(=O)NC1=O (stereo not shown) [Example 221, 5′-(Cyclohexanecarbonyl-amino)-2′-methyl-biphenyl-4-carboxylic acid [4-(3-ethyl-2,6-dioxo-piperidin-3-yl)-phenyl]-amide] | < 1 | * (* < 50 μM) |  | 
17 | Cc1ccc(NC(=O)C2CCCCC2)cc1-c1ccc(C(=O)Nc2ccc(CN(C)C)cc2)cc1 [Example 222, 5′-(Cyclohexanecarbonyl-amino)-2′-methyl-biphenyl-4-carboxylic acid (4-dimethylaminomethyl-phenyl)-amide] | 1 to 5 | * (* < 50 μM) |  | 
18 | Cc1ccc(NC(=O)C2CC2)cc1-c1ccc(C(=O)Nc2ccc(CN(C)C)cc2)cc1 [Example 223, 5′-(Cyclopropanecarbonyl-amino)-2′-methyl-biphenyl-4-carboxylic acid (4-dimethylaminomethyl-phenyl)-amide] | 1 to 5 | * (* < 50 μM) |  | 
19 | Cc1ccc(NC(=O)C2CC2)cc1-c1ccc(C(=O)Nc2ccccc2CN2CCCCC2)cc1 [Example 224, 5′-(Cyclopropanecarbonyl-amino)-2′-methyl-biphenyl-4-carboxylic acid (2-piperidin-1-ylmethyl-phenyl)-amide] | 1 to 5 | * (* < 50 μM) |  | 
20 | Cc1ccc(NC(=O)C2CC2)cc1-c1ccc(C(=O)Nc2cccc(CN(C)C)c2)cc1 [Example 225, 5′-(Cyclopropanecarbonyl-amino)-2′-methyl-biphenyl-4-carboxylic acid (3-dimethylaminomethyl-phenyl)-amide] | > 5 | * (* < 50 μM) |  | 
21 | Cc1ccc(NC(=O)C2CCCCC2)cc1-c1ccc(C(=O)Nc2ccc(CN3CCOCC3)cc2)cc1 [Example 226, 5′-(Cyclohexanecarbonyl-amino)-2′-methyl-biphenyl-4-carboxylic acid (4-morpholin-4-ylmethyl-phenyl)-amide] | < 1 | * (* < 50 μM) |  | 
22 | Cc1ccc(NC(=O)C2CCCCC2)cc1-c1ccc(C(=O)Nc2ccc(CN3CCCC3)cc2)cc1 [Example 227, 5′-(Cyclohexanecarbonyl-amino)-2′-methyl-biphenyl-4-carboxylic acid (4-pyrrolidin-1-ylmethyl-phenyl)-amide] | 1 to 5 | * (* < 50 μM) |  | 
23 | Cc1ccc(NC(=O)C2CC2)cc1-c1ccc(C(=O)Nc2ccc(CN3CCCCC3)cc2)cc1 [Example 228, 5′-(Cyclopropanecarbonyl-amino)-2′-methyl-biphenyl-4-carboxylic acid (4-piperidin-1-ylmethyl-phenyl)-amide] | 1 to 5 | * (* < 50 μM) |  | 
24 | Cc1ccc(NC(=O)C2CC2)cc1-c1ccc(C(=O)Nc2ccc(CN3CCCC3)cc2)cc1 [Example 230, 5′-(Cyclopropanecarbonyl-amino)-2′-methyl-biphenyl-4-carboxylic acid (4-pyrrolidin-1-ylmethyl-phenyl)-amide] | 1 to 5 | * (* < 50 μM) |  | 
25 | Cc1ccc(NC(=O)C2CCCCC2)cc1-c1ccc(C(=O)Nc2ccc(-c3ccno3)cc2)cc1 [Example 231, 5′-(Cyclohexanecarbonyl-amino)-2′-methyl-biphenyl-4-carboxylic acid (4-isoxazol-5-yl-phenyl)-amide] | > 5 | * (* < 50 μM) |  | 
26 | Cc1ccc(NC(=O)C2CCCCC2)cc1-c1ccc(C(=O)Nc2ccc(CO)cc2)cc1 [Example 232, 5′-(Cyclohexanecarbonyl-amino)-2′-methyl-biphenyl-4-carboxylic acid (4-hydroxymethyl-phenyl)-amide] | < 1 | * (* < 50 μM) |  | 
27 | Cc1ccc(NC(=O)c2ccco2)cc1-c1ccc(C(=O)Nc2ccc3cc[nH]c3c2)cc1 [Example 233, Furan-2-carboxylic acid [4′-(1H-indol-6-ylcarbamoyl)-6-methyl-biphenyl-3-yl]-amide] | < 1 | * (* < 50 μM) |  | 
28 | CCCS(=O)(=O)N1CCN(Cc2ccc(NC(=O)c3ccc(-c4cc(NC(=O)[C@H]5CCCCN5)ccc4OC(F)(F)F)cc3)cc2)CC1 [Example 234, (R)-Piperidine-2-carboxylic acid (4′-{4-[4-(propane-1-sulfonyl)-piperazin-1-ylmethyl]-phenylcarbamoyl}-6-trifluoromethoxy-biphenyl-3-yl)-amide] | < 1 | * (* < 50 μM) |  | 
29 | CS(=O)(=O)N1CCN(Cc2ccc(NC(=O)c3ccc(-c4cc(NC(=O)NC5CCCCC5)ccc4OC(F)(F)F)cc3)cc2)CC1 [Example 235, 5′-(3-Cyclohexyl-ureido)-2′-trifluoromethoxy-biphenyl-4-carboxylic acid [4-(4-methanesulfonyl-piperazin-1-ylmethyl)-phenyl]-amide] | < 1 | * (* < 50 μM) |  | 
